Measurements published in paper PMC3368247 (Frontiers in Pharmacology, 2012).
Where two headings read alike, the source gives them in different places.

Columns and labels:
Cx50 GJ channels = Cx50 GJ channels (Mus musculus, UniProt P28236); format: cell-based; settings: for effect on Cx50 junctional current: 10 μM; for IC50 Cx50 (μM): Table A1, alcohols, amines, nitriles and ureas; for Hill slope / Hill coefficient of Cx50 inhibition: fit to the Hill equation
hKCa3.1 = hKCa3.1 (Homo sapiens, UniProt O15554); experiment: KCa3.1 current, whole-cell patch-clamp; format: cell-based
KCa1.1 (BK) = KCa1.1 (BK) (Homo sapiens, UniProt Q12791); experiment: KCa1.1; format: cell-based; settings: read-out: Percentage of current inhibition, KCa1.1 (BK)
Kv1.1 = Kv1.1 (Mus musculus, UniProt P16388); experiment: Kv1.1 current, whole-cell patch-clamp; format: cell-based; settings: read-out: Percentage of current inhibition, Kv1.1
Kv4.2 = Kv4.2 (Rattus norvegicus, UniProt Q63881); experiment: Kv4.2 current, whole-cell patch-clamp; format: cell-based; settings: read-out: Percentage of current inhibition, Kv4.2
Cx32 GJ channels = Cx32 GJ channels (Rattus norvegicus, UniProt P08033); experiment: Cx32 junctional current, dual whole-cell voltage-clamp in N2A cells; format: cell-based; settings: 10 μM
Kv11.1 (hERG) = Kv11.1 (hERG) (Homo sapiens, UniProt Q12809); experiment: Kv11.1; format: cell-based; settings: HEK-293 cells stably expressing Kv11.1 (hERG)
KCa2.3 = KCa2.3 current, whole-cell patch-clamp; format: cell-based, human; settings: 10 μM
Kv3.1 = Kv3.1 (Mus musculus, UniProt P15388); experiment: Kv3.1 current, whole-cell patch-clamp; format: cell-based; settings: read-out: Percentage of current inhibition, Kv3.1
[1] = tested on: primary lens epithelial cells; experiment: Junctional currents between primary lens epithelial cells; format: cell-based, mouse; settings: 10 μM; for reduction of junctional currents in lens epithelial cells, % of the initial conductance: mouse lenses postnatal day 6, means ± SEM
[2] = biological target: Cx45 gap junction channels (Homo sapiens, UniProt P36383); experiment: Cx45 junctional current, dual whole-cell voltage-clamp; format: cell-based; settings: 10 μM
Kv7.2/7.3 = Kv7.2/7.3 (Homo sapiens, UniProt O43525+O43526); experiment: Kv7.2/7.3 current, whole-cell patch-clamp; format: cell-based; settings: 10 μM
Nav1.2 = Nav1.2 (Mus musculus, UniProt B1AWN6); experiment: Nav1.2 current in N1E-115 cells, whole-cell patch-clamp; format: cell-based; settings: N1E-115, read-out: Percentage of current inhibition, Nav1.2
Kv1.3 = Kv1.3 (Mus musculus, UniProt P16390); experiment: Kv1.3 current, whole-cell patch-clamp; format: cell-based; settings: read-out: Percentage of current inhibition, Kv1.3
Nav1.4 = Nav1.4 (Homo sapiens, UniProt P35499); experiment: Nav1.4 current, whole-cell patch-clamp; format: cell-based; settings: 10 μM
potassium channels = experiment: Summary of block of the tested potassium channels; format: cell-based; settings: 10 μM; summary in discussion
sodium channels = experiment: Summary of block of the tested sodium channels; format: cell-based; settings: 10 μM; summary in discussion
Cx26 GJ channels = Cx26 GJ channels (Rattus norvegicus, UniProt P21994); experiment: Cx26 junctional current, dual whole-cell voltage-clamp in N2A cells; format: cell-based; settings: 10 μM
Kv2.1 = Kv2.1 (Homo sapiens, UniProt Q14721); experiment: Kv2.1 current, whole-cell patch-clamp; format: cell-based; settings: read-out: Percentage of current inhibition, Kv2.1
P2x7 receptors = settings: read-out: IC50, P2x7 receptors; ref Suadicani et al., 2006; cited from earlier work
Cx38 hemichannel = settings: read-out: IC50, Cx38 hemichannel currents; Xenopus oocytes; literature value; cited from earlier work
Cx26 hemichannel = settings: read-out: IC50, Cx26 hemichannel currents; Xenopus oocytes; literature value; cited from earlier work
pannexin channels = settings: read-out: IC50, pannexin channels; ref Locovei et al., 2007; cited from earlier work
[3] = biological target: 11β-hydroxysteroid dehydrogenase; settings: read-out: IC50, 11β-hydroxysteroid dehydrogenase; ref Monder et al., 1989; cited from earlier work
[4] = tested on: voltage-gated Ca^2+ currents; settings: read-out: IC50, voltage-gated Ca2+ currents; ref Vessey et al., 2004; cited from earlier work
[5] = IC50 KCa3.1, Table 1, mean ± SD

hKCa3.1, sequence (O15554 whole entry): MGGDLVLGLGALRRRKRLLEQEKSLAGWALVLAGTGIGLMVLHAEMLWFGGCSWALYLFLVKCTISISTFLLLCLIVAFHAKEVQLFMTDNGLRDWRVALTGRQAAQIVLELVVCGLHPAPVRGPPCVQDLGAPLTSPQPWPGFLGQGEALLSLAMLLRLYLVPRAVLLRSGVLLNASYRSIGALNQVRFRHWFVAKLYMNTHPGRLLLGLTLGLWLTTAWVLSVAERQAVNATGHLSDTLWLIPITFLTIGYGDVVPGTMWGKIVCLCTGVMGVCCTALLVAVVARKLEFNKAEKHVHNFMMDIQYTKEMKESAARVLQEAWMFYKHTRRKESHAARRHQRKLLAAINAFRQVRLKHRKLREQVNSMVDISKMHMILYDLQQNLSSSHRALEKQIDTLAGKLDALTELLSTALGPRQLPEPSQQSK
Cx50 GJ channels, sequence (P28236 whole entry): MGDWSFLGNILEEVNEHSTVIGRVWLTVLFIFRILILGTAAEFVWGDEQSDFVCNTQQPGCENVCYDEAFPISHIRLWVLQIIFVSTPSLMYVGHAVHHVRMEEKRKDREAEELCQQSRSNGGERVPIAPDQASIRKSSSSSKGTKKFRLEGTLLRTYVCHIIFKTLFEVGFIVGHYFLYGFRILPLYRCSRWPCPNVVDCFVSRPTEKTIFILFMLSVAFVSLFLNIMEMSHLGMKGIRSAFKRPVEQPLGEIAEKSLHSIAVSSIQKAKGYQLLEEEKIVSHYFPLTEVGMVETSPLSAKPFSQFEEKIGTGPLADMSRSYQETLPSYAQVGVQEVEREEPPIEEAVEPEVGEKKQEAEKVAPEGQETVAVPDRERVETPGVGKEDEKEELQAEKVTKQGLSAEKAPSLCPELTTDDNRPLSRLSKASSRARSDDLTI
Kv3.1, sequence (P15388 whole entry): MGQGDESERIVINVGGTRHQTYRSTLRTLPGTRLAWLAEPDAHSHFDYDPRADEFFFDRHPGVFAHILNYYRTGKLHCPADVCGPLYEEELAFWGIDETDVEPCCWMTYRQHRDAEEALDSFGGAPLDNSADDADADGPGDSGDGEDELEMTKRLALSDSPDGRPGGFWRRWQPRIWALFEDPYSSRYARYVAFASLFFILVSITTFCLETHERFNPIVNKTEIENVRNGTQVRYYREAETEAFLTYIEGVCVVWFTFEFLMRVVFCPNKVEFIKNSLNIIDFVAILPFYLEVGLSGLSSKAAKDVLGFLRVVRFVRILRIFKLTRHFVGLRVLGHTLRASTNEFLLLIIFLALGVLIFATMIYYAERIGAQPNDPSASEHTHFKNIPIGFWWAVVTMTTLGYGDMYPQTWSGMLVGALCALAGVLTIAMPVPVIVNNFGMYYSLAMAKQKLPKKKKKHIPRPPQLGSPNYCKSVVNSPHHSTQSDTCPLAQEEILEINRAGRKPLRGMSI
Nav1.4, sequence (P35499 whole entry): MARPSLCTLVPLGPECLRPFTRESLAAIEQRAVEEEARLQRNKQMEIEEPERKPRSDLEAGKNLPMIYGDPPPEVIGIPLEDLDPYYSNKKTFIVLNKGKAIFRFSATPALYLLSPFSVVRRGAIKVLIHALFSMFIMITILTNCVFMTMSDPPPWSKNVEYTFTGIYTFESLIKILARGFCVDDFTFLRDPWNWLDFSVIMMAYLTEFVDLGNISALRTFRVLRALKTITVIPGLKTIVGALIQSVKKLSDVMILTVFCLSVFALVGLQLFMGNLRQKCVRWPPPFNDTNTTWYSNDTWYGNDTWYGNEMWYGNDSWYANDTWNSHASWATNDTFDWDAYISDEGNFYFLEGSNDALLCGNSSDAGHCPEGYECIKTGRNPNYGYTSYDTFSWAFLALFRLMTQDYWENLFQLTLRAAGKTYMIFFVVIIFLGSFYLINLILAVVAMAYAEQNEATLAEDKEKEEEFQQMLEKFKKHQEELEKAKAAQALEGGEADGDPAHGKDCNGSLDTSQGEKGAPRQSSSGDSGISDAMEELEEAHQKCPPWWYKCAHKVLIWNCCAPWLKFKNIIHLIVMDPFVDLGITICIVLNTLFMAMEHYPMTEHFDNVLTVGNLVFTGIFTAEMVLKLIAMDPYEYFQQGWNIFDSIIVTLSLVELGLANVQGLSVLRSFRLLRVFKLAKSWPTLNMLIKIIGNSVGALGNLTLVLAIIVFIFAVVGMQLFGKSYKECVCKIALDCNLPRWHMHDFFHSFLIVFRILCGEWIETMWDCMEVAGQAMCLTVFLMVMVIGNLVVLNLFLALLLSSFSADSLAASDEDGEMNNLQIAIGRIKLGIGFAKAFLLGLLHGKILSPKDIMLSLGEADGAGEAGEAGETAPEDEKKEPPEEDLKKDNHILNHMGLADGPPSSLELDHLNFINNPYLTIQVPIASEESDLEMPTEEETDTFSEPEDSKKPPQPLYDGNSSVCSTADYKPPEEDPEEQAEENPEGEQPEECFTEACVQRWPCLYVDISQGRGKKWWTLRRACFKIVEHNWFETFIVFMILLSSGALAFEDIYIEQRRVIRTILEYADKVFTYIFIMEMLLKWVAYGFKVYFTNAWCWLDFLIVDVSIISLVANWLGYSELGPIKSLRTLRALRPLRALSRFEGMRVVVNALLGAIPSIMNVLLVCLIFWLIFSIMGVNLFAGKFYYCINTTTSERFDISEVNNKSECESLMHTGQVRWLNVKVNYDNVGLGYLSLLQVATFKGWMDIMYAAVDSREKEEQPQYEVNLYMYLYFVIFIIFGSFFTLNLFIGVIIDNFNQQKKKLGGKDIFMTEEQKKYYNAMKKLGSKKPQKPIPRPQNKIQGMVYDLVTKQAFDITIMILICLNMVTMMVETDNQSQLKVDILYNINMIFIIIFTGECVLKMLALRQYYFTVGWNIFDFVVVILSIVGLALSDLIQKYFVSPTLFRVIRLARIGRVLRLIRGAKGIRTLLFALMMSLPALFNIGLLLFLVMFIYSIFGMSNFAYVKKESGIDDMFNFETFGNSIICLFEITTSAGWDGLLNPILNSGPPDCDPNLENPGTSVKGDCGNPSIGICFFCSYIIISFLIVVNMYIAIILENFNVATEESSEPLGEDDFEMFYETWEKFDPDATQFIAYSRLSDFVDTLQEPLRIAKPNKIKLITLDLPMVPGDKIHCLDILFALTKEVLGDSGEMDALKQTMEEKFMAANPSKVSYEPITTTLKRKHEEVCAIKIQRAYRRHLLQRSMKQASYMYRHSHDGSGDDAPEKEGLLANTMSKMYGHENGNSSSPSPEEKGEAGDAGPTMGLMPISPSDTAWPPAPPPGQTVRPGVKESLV
Kv11.1 (hERG), sequence (Q12809 whole entry): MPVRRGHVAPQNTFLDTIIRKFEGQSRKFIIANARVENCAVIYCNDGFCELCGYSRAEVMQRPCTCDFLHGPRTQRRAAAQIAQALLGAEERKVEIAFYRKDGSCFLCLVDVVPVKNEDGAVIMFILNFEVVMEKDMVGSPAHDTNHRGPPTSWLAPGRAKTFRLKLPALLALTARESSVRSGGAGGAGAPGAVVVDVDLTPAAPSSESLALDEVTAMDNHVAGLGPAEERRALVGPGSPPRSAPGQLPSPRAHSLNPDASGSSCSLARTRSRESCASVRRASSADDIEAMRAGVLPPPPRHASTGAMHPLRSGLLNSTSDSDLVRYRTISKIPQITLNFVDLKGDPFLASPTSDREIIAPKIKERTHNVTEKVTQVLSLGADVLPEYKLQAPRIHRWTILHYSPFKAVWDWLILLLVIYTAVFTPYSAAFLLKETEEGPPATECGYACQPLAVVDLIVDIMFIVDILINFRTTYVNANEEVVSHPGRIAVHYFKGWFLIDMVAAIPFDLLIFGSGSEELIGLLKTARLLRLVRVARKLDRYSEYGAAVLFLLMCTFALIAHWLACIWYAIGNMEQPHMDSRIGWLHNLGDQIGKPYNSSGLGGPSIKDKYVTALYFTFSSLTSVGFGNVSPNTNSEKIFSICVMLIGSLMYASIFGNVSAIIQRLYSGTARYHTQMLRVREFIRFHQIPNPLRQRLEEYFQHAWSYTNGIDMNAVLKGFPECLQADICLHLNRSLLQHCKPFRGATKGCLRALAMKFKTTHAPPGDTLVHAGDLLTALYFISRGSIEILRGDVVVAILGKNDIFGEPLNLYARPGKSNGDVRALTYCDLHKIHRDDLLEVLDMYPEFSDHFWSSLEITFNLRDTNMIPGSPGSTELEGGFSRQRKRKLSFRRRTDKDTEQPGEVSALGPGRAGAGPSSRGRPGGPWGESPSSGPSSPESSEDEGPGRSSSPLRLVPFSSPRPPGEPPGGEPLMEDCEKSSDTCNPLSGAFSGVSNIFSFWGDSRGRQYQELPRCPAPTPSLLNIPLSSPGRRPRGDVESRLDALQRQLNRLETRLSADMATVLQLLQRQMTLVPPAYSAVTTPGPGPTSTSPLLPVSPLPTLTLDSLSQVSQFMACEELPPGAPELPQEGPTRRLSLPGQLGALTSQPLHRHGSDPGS
Kv1.3, sequence (P16390 whole entry): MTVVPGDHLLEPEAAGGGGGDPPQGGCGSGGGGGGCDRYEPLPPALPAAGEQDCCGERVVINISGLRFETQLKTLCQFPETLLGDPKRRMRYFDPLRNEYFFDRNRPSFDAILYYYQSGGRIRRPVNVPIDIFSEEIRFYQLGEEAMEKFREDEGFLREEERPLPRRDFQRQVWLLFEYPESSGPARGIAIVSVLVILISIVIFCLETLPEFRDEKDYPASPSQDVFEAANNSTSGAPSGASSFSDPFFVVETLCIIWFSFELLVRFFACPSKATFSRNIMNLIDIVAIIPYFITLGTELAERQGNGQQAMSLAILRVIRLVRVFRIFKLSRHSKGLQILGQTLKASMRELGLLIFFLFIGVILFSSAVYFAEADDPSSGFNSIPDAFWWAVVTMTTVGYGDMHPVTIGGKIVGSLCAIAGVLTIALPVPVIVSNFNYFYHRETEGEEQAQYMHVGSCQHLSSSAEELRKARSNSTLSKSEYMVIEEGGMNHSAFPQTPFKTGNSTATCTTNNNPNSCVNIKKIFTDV

## COc1ccc(CCN2CCC(Nc3nc4ccccc4n3Cc3ccc(F)cc3)CC2)cc1 [Astemizole, reference compound]
Cx50 GJ channels
  reversibility of inhibition of Cx50 junctional currents upon washout: completely reversible
  effect on Cx50 junctional current: significant inhibition

## OC(c1ccccc1)(c1ccccc1)c1ccc(Cl)cc1 [T1, (4-Chlorophenyl)diphenylmethanol]
hKCa3.1; IC50 KCa3.1 (μM), Table A1
  IC50: 0.53 µM
Cx50 GJ channels
  IC50: 2.8 µM

## OC(c1ccccc1)(c1ccccc1)c1cccc(Cl)c1 [T2, (3-Chlorophenyl)diphenylmethanol]
hKCa3.1; IC50 KCa3.1 (μM), Table A1
  IC50: 0.55 µM
Cx50 GJ channels
  IC50: 3.6 µM

## OC(c1ccccc1)(c1ccccc1)c1ccncc1 [T50, diphenyl-4-pyridylmethanol]
hKCa3.1
  IC50: > 50 µM
Cx50 GJ channels
  IC50: 10 µM

## O=C(O)CC(c1ccccc1)(c1ccccc1)c1ccccc1 [T51, 3,3,3-triphenylpropionic acid]
hKCa3.1; IC50 KCa3.1 (μM), Table A1
  IC50: 25 µM
Cx50 GJ channels
  IC50 Cx50 (μM): No effect

## FC(F)(F)Oc1cccc(NC(c2ccccc2)(c2ccccc2)c2ccccc2Cl)c1 [T102, N-[(2-Chlorophenyl)diphenylmethyl]-3-(trifluoromethoxy)aniline]
Cx50 GJ channels
  effect on Cx50 junctional current: no effect

## FC(F)(F)Oc1ccccc1NC(c1ccccc1)(c1ccccc1)c1ccccc1Cl [T104, N-[(2-Chlorophenyl)diphenylmethyl]-2-(trifluoromethoxy)aniline]
Cx50 GJ channels
  effect on Cx50 junctional current: no effect

## COc1ccc(NC(c2ccccc2)(c2ccccc2)c2ccccc2Cl)cc1 [T106, N-[(2-Chlorophenyl)diphenylmethyl]-4-methoxyaniline]
Cx50 GJ channels
  IC50: 10 µM

## Clc1ccccc1C(Oc1ccccc1)(c1ccccc1)c1ccccc1 [T107, 1-Chloro-2-(phenoxydiphenylmethyl)benzene]
Cx50 GJ channels
  effect on Cx50 junctional current: no effect

## Clc1ccccc1C(Nc1ccccc1)(c1ccccc1)c1ccccc1 [T109, N-[(2-Chlorophenyl)diphenylmethyl]aniline]
Cx50 GJ channels
  effect on Cx50 junctional current: no effect

## COc1ccccc1C(O)(c1ccccc1)c1ccccc1 [T117, (2-Methoxyphenyl)diphenylmethanol]
Cx50 GJ channels
  IC50 Cx50 (μM): No effect

## COc1ccccc1C(Nc1nccs1)(c1ccccc1)c1ccccc1 [T122, N-[(2-Methoxyphenyl)diphenylmethyl]-1,3-thiazol-2-amine]
KCa1.1 (BK)
  inhibition at 10 µM: 43 ± 4%
Kv1.1
  inhibition at 10 µM: 65 ± 10%
hKCa3.1; [5]
  IC50: 10.2 µM
hKCa3.1; IC50 KCa3.1, running text
  IC50: 10 µM
Kv4.2
  inhibition at 10 µM: 16 ± 4%
Cx32 GJ channels
  inhibition of Cx32 GJ channel current / reduction of junction conductance: no significant effect
Kv11.1 (hERG)
  inhibition at 10 µM: 42 ± 3%
KCa2.3
  Percentage of current inhibition, KCa2.3: No effect (n = 3)
Kv3.1
  inhibition at 10 µM: 32 ± 12%
Cx50 GJ channels
  IC50: 1.2 µM
  selectivity over other connexins as well as major neuronal and cardiac voltage-gated K+ and Na+ channels: at least 10 fold
  Hill slope / Hill coefficient of Cx50 inhibition: 1.6
[1]
  reversibility of reduction of junctional currents on washout: reversible
  reduction of junctional currents in lens epithelial cells, % of the initial conductance: 67 ± 9%
[2]
  effect on Cx45 gap junction channels: no significant effect
Kv7.2/7.3
  Percentage of current inhibition, Kv7.2/7.3: No effect (n = 3)
Nav1.2
  inhibition at 10 µM: 11 ± 1%
Kv1.3
  inhibition at 10 µM: 52 ± 2%
Nav1.4
  Percentage of current inhibition, Nav1.4: No effect (n = 3)
Potassium channels
  inhibition of most of the tested potassium channels: 18–43%
Sodium channels
  inhibition of sodium channels: < 11%
Cx26 GJ channels
  inhibition of Cx26 GJ channel current / reduction of junction conductance: no significant effect
Kv2.1
  inhibition at 10 µM: 28 ± 4%

## Ic1ccccc1C(Nc1nccs1)(c1ccccc1)c1ccccc1 [T136, N-[(2-Iodophenyl)diphenylmethyl]-1,3-thiazol-2-amine]
KCa1.1 (BK)
  inhibition at 10 µM: 26 ± 2%
Kv1.1
  inhibition at 10 µM: 28 ± 9%
hKCa3.1; [5]
  IC50: 1.3 µM
Kv4.2
  inhibition at 10 µM: 15 ± 3%
Cx32 GJ channels
  inhibition of Cx32 GJ channel current / reduction of junction conductance: no significant effect
Kv11.1 (hERG)
  inhibition at 10 µM: 27 ± 4%
KCa2.3
  Percentage of current inhibition, KCa2.3: No effect (n = 3)
Kv3.1
  inhibition at 10 µM: 37 ± 16%
Cx50 GJ channels
  IC50: 2.4 µM
  selectivity over other connexins as well as major neuronal and cardiac voltage-gated K+ and Na+ channels: at least 10 fold
  Hill slope / Hill coefficient of Cx50 inhibition: 1.7
[1]
  reversibility of reduction of junctional currents on washout: reversible
  reduction of junctional currents in lens epithelial cells, % of the initial conductance: 64 ± 8%
[2]
  effect on Cx45 gap junction channels: no significant effect
Kv7.2/7.3
  Percentage of current inhibition, Kv7.2/7.3: No effect (n = 2)
Nav1.2
  inhibition at 10 µM: 9 ± 0.5%
Kv1.3
  inhibition at 10 µM: 18 ± 4%
Nav1.4
  Percentage of current inhibition, Nav1.4: No effect (n = 3)
Potassium channels
  inhibition of most of the tested potassium channels: 18–43%
Sodium channels
  inhibition of sodium channels: < 11%
Cx26 GJ channels
  inhibition of Cx26 GJ channel current / reduction of junction conductance: no significant effect
Kv2.1
  inhibition at 10 µM: 28 ± 4%

## FC(F)(F)Oc1ccc(NC(c2ccccc2)(c2ccccc2)c2ccccc2Cl)cc1 [T150, N-[(2-Chlorophenyl)diphenylmethyl]-4-(trifluoromethoxy)aniline]
Cx50 GJ channels
  effect on Cx50 junctional current: no effect

## Nc1ccccc1C(O)(c1ccccc1)c1ccccc1 [T154-OH, (2-Aminophenyl)diphenylmethanol]
Cx50 GJ channels
  IC50 Cx50 (μM): No effect

## c1ccc(C(c2ccccc2)c2ccncc2)cc1 [T160, diphenyl-4-pyridylmethane]
hKCa3.1
  IC50: 8.6 µM
Cx50 GJ channels
  IC50: 4 µM

## COc1ccccc1C(O)(c1ccccc1)c1ccccc1OC [T165, Bis-(2-methoxyphenyl)(phenyl)methanol]
Cx50 GJ channels
  IC50 Cx50 (μM): No effect

## c1ccc(C(c2ccccc2)c2ccccc2)cc1 [Triphenylmethane, triphenylmethane]
hKCa3.1; IC50 KCa3.1 (μM), Table A1
  IC50: 3.7 µM
Cx50 GJ channels
  IC50: 0.9 µM

## OC(c1ccccc1)(c1ccccc1)c1ccccc1 [Triphenylmethanol, triphenylmethanol]
hKCa3.1; IC50 KCa3.1 (μM), Table A1
  IC50: 0.5 µM
Cx50 GJ channels
  IC50: 1 µM

## CC1(C)[C@@H](OC(=O)CCC(=O)O)CC[C@]2(C)[C@H]3C(=O)C=C4[C@@H]5C[C@@](C)(C(=O)O)CC[C@]5(C)CC[C@@]4(C)[C@]3(C)CC[C@@H]12 [carbenoxolone]
P2x7 receptors
  IC50: 0.175 µM
Cx38 hemichannel
  IC50: 34 µM
Cx26 hemichannel
  IC50: 21 µM
Pannexin channels
  IC50: 2 to 5 µM
[3]
  IC50: ~5 µM
[4]
  IC50: 48 µM

## O=c1c(O)c(-c2ccc(O)c(O)c2)oc2cc(O)cc(O)c12 [quercetin, reference compound]
Cx50 GJ channels
  effect on Cx50 junctional current: no effect

## C[C@@H]1O[C@@H](OC[C@H]2O[C@@H](Oc3c(-c4ccc(O)c(O)c4)oc4cc(O)cc(O)c4c3=O)[C@H](O)[C@@H](O)[C@@H]2O)[C@H](O)[C@H](O)[C@H]1O [rutin, reference compound]
Cx50 GJ channels
  reversibility of inhibition of Cx50 junctional currents upon washout: only partially reversible
  effect on Cx50 junctional current: significant inhibition
